Measured values reported in patent US20250090174A1, “LEFT ATRIAL APPENDAGE CLOSURE DEVICE WITH DRUG-ELUTING COMPOSITION” (BOSTON SCIENTIFIC SCIMED, INC., priority 2023, published 2025).

Test system: heparinized bovine blood
Assay: In-vitro clot weight on drug coated PET fabric disks in heparinized bovine blood
Conditions: PVDF-HFP/drug 90/10 dip coated PET disks, 37° C., ACT about 190, FIG. 18
Protocol: A solution of PVDF-HFP and DOAC (direct oral anticoagulant) was prepared in 80/20 acetone/DMSO (wt/wt). The PVDF-HFP drug ratio was 90/10 (wt/wt) and the solution solids was 0.7%. […] diameter WM PET fabric disks were dip coated into the polymer/drug solution at a dip speed of […]. The coated disks were dried for […] at 125° C. in a convection oven. The drug coated disks and PVDF-HFP only control disks were placed in cups containing heparinized bovine blood adjusted to an ACT of about 190 using protamine. The cups were placed on an orbital shaker incubator at 37° C. and disks were removed at various time points and imaged. The disks were then dried and weighed to determine clot wt.

## COc1ccc(-n2nc(C(N)=O)c3c2C(=O)N(c2ccc(N4CCCCC4=O)cc2)CC3)cc1 [Apixaban]
  thrombus (clot weight) compared to the PVDF-HFP coated control: significantly less thrombus

## O=C(NC[C@H]1CN(c2ccc(N3CCOCC3=O)cc2)C(=O)O1)c1ccc(Cl)s1 [Rivaroxaban, 5-Chloro-N-({(5S)-2-oxo-3-[4-(3-oxo-4-morpholinyl)phenyl]-1,3-oxazolidin-5-yl}methyl)-2-thiophenecarboxamide]
  thrombus (clot weight) compared to the PVDF-HFP coated control: significantly less thrombus
